Measurements: ChEMBL document CHEMBL2074160, “Polyspecific drug and steroid clearance by an organic anion transporter of mammalian liver” (J Pharmacol Exp Ther, 1996)

Tests used:
[1] = molecular target: T1, Solute carrier organic anion transporter family member 1A1 (Rattus norvegicus, UniProt P46720); assay: TP_TRANSPORTER: inhibition of Ouabain uptake (Ouabain: 100 uM, Testosterone: 100 uM) in Xenopus laevis oocytes; format: functional, cell-based, Oocyte; parameters: scale not given: the % may be the effect or the level left; conditions: probe Ouabain (100 uM), read-out: Activity
T1 sequence (P46720 whole entry): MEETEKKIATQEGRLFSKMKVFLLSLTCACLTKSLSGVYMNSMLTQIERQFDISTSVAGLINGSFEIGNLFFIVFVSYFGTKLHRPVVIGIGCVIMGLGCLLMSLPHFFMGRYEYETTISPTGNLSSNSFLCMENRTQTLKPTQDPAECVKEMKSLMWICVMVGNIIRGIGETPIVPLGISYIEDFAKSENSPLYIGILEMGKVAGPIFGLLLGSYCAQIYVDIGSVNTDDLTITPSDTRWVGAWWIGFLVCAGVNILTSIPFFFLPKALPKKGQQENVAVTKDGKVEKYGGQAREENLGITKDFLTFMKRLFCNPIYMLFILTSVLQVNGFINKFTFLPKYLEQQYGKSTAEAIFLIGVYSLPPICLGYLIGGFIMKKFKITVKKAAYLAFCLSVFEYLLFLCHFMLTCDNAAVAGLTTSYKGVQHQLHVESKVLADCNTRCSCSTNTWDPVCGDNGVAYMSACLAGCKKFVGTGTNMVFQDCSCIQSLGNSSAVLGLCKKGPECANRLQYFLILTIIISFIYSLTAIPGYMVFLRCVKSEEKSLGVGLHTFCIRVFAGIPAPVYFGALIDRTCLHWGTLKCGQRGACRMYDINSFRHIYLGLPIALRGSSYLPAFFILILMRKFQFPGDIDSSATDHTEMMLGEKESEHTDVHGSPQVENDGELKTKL

[2] = molecular target: T1, Solute carrier organic anion transporter family member 1A1; assay: TP_TRANSPORTER: inhibition of Ouabain uptake (Ouabain: 100 uM, beta-Estradiol: 100 uM) in Xenopus laevis oocytes; format: functional, cell-based, Oocyte; parameters: scale not given: the % may be the effect or the level left; conditions: probe Ouabain (100 uM), read-out: Activity
[3] = molecular target: T1, Solute carrier organic anion transporter family member 1A1; assay: TP_TRANSPORTER: inhibition of Ouabain uptake (Ouabain: 100 uM, Cortisol: 100 uM) in Xenopus laevis oocytes; format: functional, cell-based, Oocyte; parameters: scale not given: the % may be the effect or the level left; conditions: probe Ouabain (100 uM), read-out: Activity
[4] = molecular target: T1, Solute carrier organic anion transporter family member 1A1; assay: TP_TRANSPORTER: inhibition of Ouabain uptake (Ouabain: 100 uM, E217betaG: 100 uM) in Xenopus laevis oocytes; format: functional, cell-based, Oocyte; parameters: scale not given: the % may be the effect or the level left; conditions: probe Ouabain (100 uM), read-out: Activity
[5] = molecular target: T1, Solute carrier organic anion transporter family member 1A1; assay: TP_TRANSPORTER: inhibition of Ouabain uptake (Ouabain: 100 uM, Estrone-3-glucuronide: 100 uM) in Xenopus laevis oocytes; format: functional, cell-based, Oocyte; parameters: scale not given: the % may be the effect or the level left; conditions: probe Ouabain (100 uM), read-out: Activity
[6] = molecular target: T1, Solute carrier organic anion transporter family member 1A1; assay: TP_TRANSPORTER: inhibition of Ouabain uptake (Ouabain: 100 uM, E1S: 100 uM) in Xenopus laevis oocytes; format: functional, cell-based; parameters: scale not given: the % may be the effect or the level left; conditions: oocyte
[7] = molecular target: T1, Solute carrier organic anion transporter family member 1A1; assay: TP_TRANSPORTER: inhibition of Ouabain uptake (Ouabain: 100 uM, Digoxigenin: 100 uM) in Xenopus laevis oocytes; format: functional, cell-based, Oocyte; parameters: scale not given: the % may be the effect or the level left; conditions: probe Ouabain (100 uM), read-out: Activity
[8] = molecular target: T1, Solute carrier organic anion transporter family member 1A1; assay: (§1) TP_TRANSPORTER: uptake in Xenopus laevis oocytes; format: functional, cell-based, Oocyte
[9] = molecular target: T1, Solute carrier organic anion transporter family member 1A1; assay: TP_TRANSPORTER: inhibition of Ouabain uptake (Ouabain: 100 uM, Dexamethasone: 100 uM) in Xenopus laevis oocytes; format: functional, cell-based, Oocyte; parameters: scale not given: the % may be the effect or the level left; conditions: probe Ouabain (100 uM), read-out: Activity
[10] = molecular target: T1, Solute carrier organic anion transporter family member 1A1; assay: TP_TRANSPORTER: inhibition of Ouabain uptake (Ouabain: 100 uM, Estradiol-3-glucuronide: 100 uM) in Xenopus laevis oocytes; format: functional, cell-based, Oocyte; parameters: scale not given: the % may be the effect or the level left; conditions: probe Ouabain (100 uM), read-out: Activity
[11] = molecular target: T1, Solute carrier organic anion transporter family member 1A1; assay: TP_TRANSPORTER: inhibition of Ouabain uptake (Ouabain: 100 uM, ICG: 100 uM) in Xenopus laevis oocytes; format: functional, cell-based; parameters: scale not given: the % may be the effect or the level left; conditions: oocyte
[12] = molecular target: T1, Solute carrier organic anion transporter family member 1A1; assay: TP_TRANSPORTER: inhibition of Ouabain uptake (Ouabain: 100 uM, Prednisolone: 100 uM) in Xenopus laevis oocytes; format: functional, cell-based, Oocyte; parameters: scale not given: the % may be the effect or the level left; conditions: probe Ouabain (100 uM), read-out: Activity
[13] = molecular target: T1, Solute carrier organic anion transporter family member 1A1; assay: TP_TRANSPORTER: inhibition of Ouabain uptake (Ouabain: 100 uM, Aldosterone: 100 uM) in Xenopus laevis oocytes; format: functional, cell-based; parameters: scale not given: the % may be the effect or the level left; conditions: oocyte
[14] = molecular target: T1, Solute carrier organic anion transporter family member 1A1; assay: TP_TRANSPORTER: inhibition of Ouabain uptake (Ouabain: 100 uM, Prednisone: 100 uM) in Xenopus laevis oocytes; format: functional, cell-based; parameters: scale not given: the % may be the effect or the level left; conditions: oocyte
[15] = molecular target: T1, Solute carrier organic anion transporter family member 1A1; assay: TP_TRANSPORTER: inhibition of Ouabain uptake (Ouabain: 100 uM, Rose bengal: 100 uM) in Xenopus laevis oocytes; format: functional, cell-based; parameters: scale not given: the % may be the effect or the level left; conditions: oocyte
[16] = molecular target: T1, Solute carrier organic anion transporter family member 1A1; assay: TP_TRANSPORTER: inhibition of Ouabain uptake (Ouabain: 100 uM, Digitoxin: 100 uM) in Xenopus laevis oocytes; format: functional, cell-based, Oocyte; parameters: scale not given: the % may be the effect or the level left; conditions: probe Ouabain (100 uM), read-out: Activity
[17] = molecular target: T1, Solute carrier organic anion transporter family member 1A1; assay: TP_TRANSPORTER: inhibition of Ouabain uptake (Ouabain: 100 uM, Corticosterone: 100 uM) in Xenopus laevis oocytes; format: functional, cell-based; parameters: scale not given: the % may be the effect or the level left; conditions: oocyte
[18] = molecular target: T1, Solute carrier organic anion transporter family member 1A1; assay: TP_TRANSPORTER: inhibition of Ouabain uptake (Ouabain: 100 uM, BSP: 100 uM) in Xenopus laevis oocytes; format: functional, cell-based, Oocyte; parameters: scale not given: the % may be the effect or the level left; conditions: probe Ouabain (100 uM), read-out: Activity
[19] = substrate: C[C@]12CC[C@@H]3c4ccc(OS(=O)(=O)O)cc4CC[C@H]3[C@@H]1CCC2=O; assay: as §1; format: functional, cell-based, Oocyte
[20] = substrate: C[C@]12CC[C@@H]3c4ccc(O)cc4CC[C@H]3[C@@H]1CC[C@@H]2O[C@@H]1O[C@H](C(=O)O)[C@@H](O)[C@H](O)[C@H]1O; assay: as §1; format: functional, cell-based, Oocyte
[21] = substrate: C[C@]12CCC(=O)C=C1CC[C@@H]1[C@@H]2[C@@H](O)C[C@@]2(C)[C@H]1CC[C@]2(O)C(=O)CO; assay: as §1; format: functional, cell-based, Oocyte
[22] = substrate: C[C@]12CCC(=O)C=C1CC[C@@H]1[C@@H]2[C@@H](O)C[C@]2(C=O)[C@@H](C(=O)CO)CC[C@@H]12; assay: as §1; format: functional, cell-based, Oocyte

C[C@]12CC[C@H]3[C@@H](CCC4=CC(=O)CC[C@@]43C)[C@@H]1CC[C@@H]2O [TESTOSTERONE]
activity at 100 µM [1]: 16%

C[C@]12CC[C@@H]3c4ccc(O)cc4CC[C@H]3[C@@H]1CC[C@@H]2O [ESTRADIOL]
activity at 100 µM [2]: 40%

C[C@]12CCC(=O)C=C1CC[C@@H]1[C@@H]2[C@@H](O)C[C@@]2(C)[C@H]1CC[C@]2(O)C(=O)CO [HYDROCORTISONE]
activity at 100 µM [3]: 19%

C[C@]12CC[C@@H]3c4ccc(O)cc4CC[C@H]3[C@@H]1CC[C@@H]2O[C@@H]1O[C@H](C(=O)O)[C@@H](O)[C@H](O)[C@H]1O [ESTRADIOL 17B GLUCURONIDE]
activity at 100 µM [4]: 16%

C[C@]12CC[C@@H]3c4ccc(O[C@@H]5O[C@H](C(=O)O)[C@@H](O)[C@H](O)[C@H]5O)cc4CC[C@H]3[C@@H]1CCC2=O
activity at 100 µM [5]: 24%

C[C@]12CC[C@@H]3c4ccc(OS(=O)(=O)O)cc4CC[C@H]3[C@@H]1CCC2=O [ESTRONE SULFURIC ACID]
Activity [6]: 10%

C[C@]12CC[C@H](O)C[C@H]1CC[C@@H]1[C@@H]2C[C@@H](O)[C@]2(C)[C@@H](C3=CC(=O)OC3)CC[C@]12O [DIGOXIGENIN]
activity at 100 µM [7]: 19%

C[C@@H]1C[C@H]2[C@@H]3CCC4=CC(=O)C=C[C@]4(C)[C@@]3(F)[C@@H](O)C[C@]2(C)[C@@]1(O)C(=O)CO [DEXAMETHASONE]
Activity ([8]; oocyte): substrate [+]
activity at 100 µM [9]: 26%

C[C@]12CC[C@@H]3c4ccc(O[C@@H]5O[C@H](C(=O)O)[C@@H](O)[C@H](O)[C@H]5O)cc4CC[C@H]3[C@@H]1CC[C@@H]2O
activity at 100 µM [10]: 27%

CC1(C)C(/C=C/C=C/C=C/C=C2/N(CCCCS(=O)(=O)[O-])c3ccc4ccccc4c3C2(C)C)=[N+](CCCCS(=O)(=O)[O-])c2ccc3ccccc3c21.[Na+] [INDOCYANINE GREEN]
Activity [11]: 6%

C[C@]12C=CC(=O)C=C1CC[C@@H]1[C@@H]2[C@@H](O)C[C@@]2(C)[C@H]1CC[C@]2(O)C(=O)CO [PREDNISOLONE]
activity at 100 µM [12]: 40%

C[C@]12CCC(=O)C=C1CC[C@@H]1[C@@H]2[C@@H](O)C[C@]2(C=O)[C@@H](C(=O)CO)CC[C@@H]12 [ALDOSTERONE]
Activity [13]: 10%

C[C@]12C=CC(=O)C=C1CC[C@@H]1[C@@H]2C(=O)C[C@@]2(C)[C@H]1CC[C@]2(O)C(=O)CO [PREDNISONE]
Activity [14]: 34%

C[C@@H]1O[C@@H](O[C@H]2C[C@@H](O)[C@]3(CO)[C@H]4[C@H](O)C[C@]5(C)[C@@H](C6=CC(=O)OC6)CC[C@]5(O)[C@@H]4CC[C@]3(O)C2)[C@H](O)[C@H](O)[C@H]1O [OUABAIN]
Km ([8]; Xenopus laevis oocytes): 1700 µM

O=C([O-])c1c(Cl)c(Cl)c(Cl)c(Cl)c1-c1c2cc(I)c(=O)c(I)c-2oc2c(I)c([O-])c(I)cc12.[Na+].[Na+] [ROSE BENGAL SODIUM]
Activity [15]: 4%

C[C@H]1O[C@@H](O[C@H]2[C@@H](O)C[C@H](O[C@H]3[C@@H](O)C[C@H](O[C@H]4CC[C@@]5(C)[C@H](CC[C@@H]6[C@@H]5CC[C@]5(C)[C@@H](C7=CC(=O)OC7)CC[C@]65O)C4)O[C@@H]3C)O[C@@H]2C)C[C@H](O)[C@@H]1O [DIGITOXIN]
activity at 100 µM [16]: 29%

C[C@]12C[C@H](O)[C@H]3[C@@H](CCC4=CC(=O)CC[C@@]43C)[C@@H]1CC[C@@H]2C(=O)CO [CORTICOSTERONE]
Activity [17]: 15%

O=C1OC(c2ccc(O)c(S(=O)(=O)O)c2)(c2ccc(O)c(S(=O)(=O)O)c2)c2c(Br)c(Br)c(Br)c(Br)c21 [SULFOBROMOPHTHALEIN SODIUM]
activity at 100 µM [18]: 6%

B1: Solute carrier organic anion transporter family member 1A1 (Rattus norvegicus) (protein)
chain: T1 sequence (P46720 whole entry)
Km [19]: 4.5 µM
Km [20]: 3 µM
Km [21]: 13 µM
Km [22]: 0.015 µM
